This passage reports IC50 results from patent US8338587B2, “Compounds” (AstraZeneca AB, priority 2009, dated 2012).

The target of this assay is T1, recombinant human GR (Homo sapiens, UniProt P04150).
T1 construct: purchased Panvera/Invitrogen P2812 (kit P2893)
T1 sequence (P04150 1-777): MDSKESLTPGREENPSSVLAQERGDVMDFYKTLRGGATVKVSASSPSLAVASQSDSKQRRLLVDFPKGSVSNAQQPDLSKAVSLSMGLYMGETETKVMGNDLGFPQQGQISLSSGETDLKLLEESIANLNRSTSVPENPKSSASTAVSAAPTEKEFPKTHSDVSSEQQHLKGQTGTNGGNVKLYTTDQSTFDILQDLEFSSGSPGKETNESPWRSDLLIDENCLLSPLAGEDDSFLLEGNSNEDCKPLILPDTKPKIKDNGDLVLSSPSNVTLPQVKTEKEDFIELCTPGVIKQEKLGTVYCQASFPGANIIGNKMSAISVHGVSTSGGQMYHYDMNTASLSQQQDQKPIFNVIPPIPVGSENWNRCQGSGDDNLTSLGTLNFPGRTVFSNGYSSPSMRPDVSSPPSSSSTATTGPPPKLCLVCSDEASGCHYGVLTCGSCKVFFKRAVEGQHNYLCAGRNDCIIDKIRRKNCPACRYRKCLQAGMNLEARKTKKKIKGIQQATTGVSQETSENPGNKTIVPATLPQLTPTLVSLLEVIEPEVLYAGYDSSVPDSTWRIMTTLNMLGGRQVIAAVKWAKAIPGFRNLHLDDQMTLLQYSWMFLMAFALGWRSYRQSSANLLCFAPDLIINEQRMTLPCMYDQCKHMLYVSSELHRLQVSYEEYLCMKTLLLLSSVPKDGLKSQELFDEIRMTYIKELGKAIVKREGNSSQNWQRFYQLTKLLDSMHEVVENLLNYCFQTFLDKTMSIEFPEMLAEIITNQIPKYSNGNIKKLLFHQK
Nature of the assay: Human Glucocorticoid Receptor (GR) Assay (fluorescence polarization competition, Panvera/Invitrogen kit). The settings on record: GS Red Fluoromone tracer, 2 hours at room temperature, 100% control 10 μM Dexamethasone, read-out: Inhibition of GR binding, IC50. The procedure: Human Glucocorticoid Receptor (GR) Assay The assay is based on a commercial kit from Panvera/Invitrogen (Part number P2893). The assay technology is fluorescence polarization. The kit utilises recombinant human GR (Panvera, Part number P2812), a Fluoromone™ labelled tracer (GS Red, Panvera, Part number P2894) and a Stabilizing Peptide 10× (Panvera, Part number P2815). The GR and Stabilizing Peptide reagents are stored at −70° C. while the GS Red is stored at −20° C. Also included in the kit are 1M DTT (Panvera, Part number P2325, stored at −20° C.) and GR Screening buffer 10× (Panvera, Part number P2814, stored at −70° C. initially but once thawed stored at room temperature). Avoid repeated freeze/thaws for all reagents. The GR Screening buffer 10× comprises 100 mM potassium phosphate, 200 mM sodium molybdate, 1 mM EDTA and 20% DMSO. Test compounds (1 μL) and controls (1 μL) in 100% DMSO were added to black is polystyrene 384-well plates (Greiner low volume black flat-bottom, part number 784076). 0% control was 100% DMSO and 100% control was 10 μM Dexamethasone. Background solution (8 μL; assay buffer 10×, Stabilizing Peptide, DTT and ice cold MQ water) was added to the background wells. GS Red solution (7 μL; assay buffer 10×, Stabilizing Peptide, DTT, GS Red and ice cold water) was added to all wells except background wells. GR solution (7 μL; assay buffer 10×, Stabilizing Peptide, DTT, GR and ice cold water) was added to all wells. The plate was sealed and incubated in a dark at room temperature for 2 hours. The plate was read in an Analyst plate reader (LJL Biosystems/Molecular Devices Corporation) or other similar plate reader capable of recording fluorescence polarization (excitation wavelength 530 nm, emission wavelength 590 nm and a dichroic mirror at 561 nm).
For orientation: In fluorescence polarisation assays a small probe gives low polarisation when free and higher when bound to something large.
As to `COCC(=O)O[C@]1(C(=O)SCF)CC[C@H]2[C@@H]3C[C@H](C)C4=Cc5c(cnn5-c5ccc(F)nc5)C[C@]4(C)[C@H]3[C@@H](O)C[C@@]21C` [Example 8, (1R,3aS,3bS,5S,10aR,10bS,11S,12aS)-1-{[(Fluoromethyl)sulfanyl]carbonyl}-7-(6-fluoropyridin-3-yl)-11-hydroxy-5,10a,12a-trimethyl-1,2,3,3a,3b,4,5,7,10,10a,10b,11,12,12a-tetradecahydrocyclopenta[5,6]naphtho[1,2-f]indazol-1-yl methoxyacetate], the 50% inhibitory concentration (IC50) came to 0.93 nM. Next, `C[C@H]1C[C@@H]2[C@H]([C@@H](O)C[C@@]3(C)[C@H]2CC[C@]3(OC(=O)c2cocn2)C(=O)SCF)[C@@]2(C)Cc3cnn(-c4ccc(F)nc4)c3C=C12` [Example 9, (1R,3aS,3bS,5S,10aR,10bS,11S,12aS)-1-{[(Fluoromethyl)sulfanyl]carbonyl}-7-(6-fluoropyridin-3-yl)-11-hydroxy-5,10a,12a-trimethyl-1,2,3,3a,3b,4,5,7,10,10a,10b,11,12,12a-tetradecahydrocyclopenta[5,6]naphtho[1,2-f]indazol-1-yl 1,3-oxazole-4-carboxylate]: 1.5 nM; `C[C@H]1C[C@@H]2[C@H]([C@@H](O)C[C@@]3(C)[C@H]2CC[C@]3(OC(=O)c2cocn2)C(=O)SCC#N)[C@@]2(C)Cc3cnn(-c4ccc(F)nc4)c3C=C12` [Example 10, (1R,3aS,3bS,5S,10aR,10bS,11S,12aS)-1-{[(Cyanomethyl)sulfanyl]carbonyl}-7-(6-fluoropyridin-3-yl)-11-hydroxy-5,10a,12a-trimethyl-1,2,3,3a,3b,4,5,7,10,10a,10b,11,12,12a-tetradecahydrocyclopenta[5,6]naphtho[1,2-f]indazol-1-yl 1,3-oxazole-4-carboxylate]: 0.89 nM; `C[C@H]1C[C@@H]2[C@H]([C@@H](O)C[C@@]3(C)[C@H]2CC[C@]3(OC(=O)C2CC2)C(=O)SCC#N)[C@@]2(C)Cc3cnn(-c4ccc(F)nc4)c3C=C12` [Example 11, (1R,3aS,3bS,5S,10aR,10bS,11S,12aS)-1-{[(Cyanomethyl)sulfanyl]carbonyl}-7-(6-fluoropyridin-3-yl)-11-hydroxy-5,10a,12a-trimethyl-1,2,3,3a,3b,4,5,7,10,10a,10b,11,12,12a-tetradecahydrocyclopenta[5,6]naphtho[1,2-f]indazol-1-yl cyclopropanecarboxylate]: 2.1 nM. `C[C@]12Cc3cnn(-c4ccc(F)nc4)c3C=C1CC[C@H]1[C@@H]3CC[C@](OC(=O)[C@H]4CCCO4)(C(=O)SCC#N)[C@@]3(C)C[C@H](O)[C@@]12F` [Example 12, (1R,3aS,3bS,10aS,10bR,11S,12aS)-1-{[(Cyanomethyl)sulfanyl]carbonyl}-10b-fluoro-7-(6-fluoropyridin-3-yl)-11-hydroxy-10a,12a-dimethyl-1,2,3,3a,3b,4,5,7,10, 10a,10b,11,12,12a-tetradecahydrocyclopenta[5,6]naphtho[1,2-f]indazol-1-yl (2R)-tetrahydrofuran-2-carboxylate]: the IC50 amounted to 1 nM. Take `C[C@]12Cc3cnn(-c4ccc(F)nc4)c3C=C1CC[C@H]1[C@@H]3CC[C@](OC(=O)[C@H]4CCCO4)(C(=O)SCF)[C@@]3(C)C[C@H](O)[C@@]12F` [Example 13, (1R,3aS,3bS,10aS,10bR,11S,12aS)-10b-Fluoro-1-{[(fluoromethyl)sulfanyl]carbonyl}-7-(6-fluoropyridin-3-yl)-11-hydroxy-10a,12a-dimethyl-1,2,3,3a,3b,4,5,7,10,10a,10b,11,12,12a-tetradecahydrocyclopenta[5,6]naphtho[1,2-f]indazol-1-yl (2R)-tetrahydrofuran-2-carboxylate]: the IC50 amounted to 0.98 nM. Next, `C[C@]12Cc3cnn(-c4ccc(F)nc4)c3C=C1CC[C@H]1[C@@H]3CC[C@](OC(=O)[C@H]4CCCO4)(C(=O)SCCO)[C@@]3(C)C[C@H](O)[C@@]12F` [Example 14, (1R,3aS,3bS,10aS,10bR,11S,12aS)-10b-Fluoro-7-(6-fluoropyridin-3-yl)-11-hydroxy-1-{[(2-hydroxyethyl)sulfanyl]carbonyl}-10a,12a-dimethyl-1,2,3,3a,3b,4,5,7, 10, 10a, 10,11,12,12a-tetradecahydrocyclopenta[5,6]naphtho[1,2-f]indazol-1-yl (2R)-tetrahydrofuran-2-carboxylate]: 0.65 nM; `C[C@]12Cc3cnn(-c4ccc(F)nc4)c3C=C1CC[C@H]1[C@@H]3CC[C@](OC(=O)[C@@H]4CCCO4)(C(=O)SCC#N)[C@@]3(C)C[C@H](O)[C@@]12F` [Example 17, (1R,3aS,3bS,10aS,10bR,11S,12aS)-1-{[(Cyanomethyl)sulfanyl]carbonyl}-10b-fluoro-7-(6-fluoropyridin-3-yl)-11-hydroxy-10a,12a-dimethyl-1,2,3,3a,3b,4,5,7,10,10a,10b,11,12,12a-tetradecahydrocyclopenta[5,6]naphtho[1,2-f]indazol-1-yl (2S)-tetrahydrofuran-2-carboxylate]: 0.55 nM. Next, `C[C@]12Cc3cnn(-c4ccc(F)nc4)c3C=C1CC[C@H]1[C@@H]3CC[C@](OC(=O)C4CC4)(C(=O)OCC#N)[C@@]3(C)C[C@H](O)[C@@]12F` [Example 19, (1R,3aS,3bS,10aS,10bR,11S,12aS)-1-{[Cyanomethyloxy]carbonyl}-10b-fluoro-7-(6-fluoropyridin-3-yl)-11-hydroxy-10a,12a-dimethyl-1,2,3,3a,3b,4,5,7,10,10a,10b,11,12,12a-tetradecahydrocyclopenta[5,6]naphtho[1,2-f]indazol-1-yl cyclopropanecarboxylate]: 1.4 nM; `C[C@H]1C[C@@H]2[C@H]([C@@H](O)C[C@@]3(C)[C@H]2CC[C@]3(OC(=O)c2ccco2)C(=O)SCF)[C@@]2(C)Cc3cnn(-c4ccc(F)nc4)c3C=C12` [Example 21, (1R,3aS,3bS,5S,10aR,10bS,11S,12aS)-1-{[(Fluoromethyl)sulfanyl]carbonyl}-7-(6-fluoropyridin-3-yl)-11-hydroxy-5,10a,12a-trimethyl-1,2,3,3a,3b,4,5,7,10,10a,10b,11,12,12a-tetradecahydrocyclopenta[5,6]naphtho[1,2-f]indazol-1-yl furan-2-carboxylate]: 2.8 nM. Next, `C[C@H]1C[C@@H]2[C@H]([C@@H](O)C[C@@]3(C)[C@H]2CC[C@]3(OC(=O)c2ccco2)C(=O)SCC#N)[C@@]2(C)Cc3cnn(-c4ccc(F)nc4)c3C=C12` [Example 22, (1R,3aS,3bS,5S,10aR,10bS,11S,12aS)-1-{[(Cyanomethyl)sulfanyl]carbonyl}-7-(6-fluoropyridin-3-yl)-11-hydroxy-5,10a,12a-trimethyl-1,2,3,3a,3b,4,5,7,10,10a,10b,11,12,12a-tetradecahydrocyclopenta[5,6]naphtho[1,2-f]indazol-1-yl furan-2-carboxylate]: 1.7 nM; `CCC(=O)O[C@]1(C(=O)SCC#N)CC[C@H]2[C@@H]3C[C@H](C)C4=Cc5c(cnn5-c5ccc(F)nc5)C[C@]4(C)[C@H]3[C@@H](O)C[C@@]21C` [Example 23, (1R,3aS,3bS,5S,10aR,10bS,11S,12aS)-1-{[(Cyanomethyl)sulfanyl]carbonyl}-7-(6-fluoropyridin-3-yl)-11-hydroxy-5,10a,12a-trimethyl-1,2,3,3a,3b,4,5,7,10,10a,10b,11,12,12a-tetradecahydrocyclopenta[5,6]naphtho[1,2-f]indazol-1-yl propanoate]: 1 nM.

The term IC50 denotes the concentration that gives 50% inhibition.
